The assay relates to L1210 leukemia ip in BDF1 mice, survival T/C. Description: NCI In Vivo Anticancer Drug Screen. Data for tumor model L1210 Leukemia (intraperitoneal) in B6D2F1 (BDF1) mice. The following applies: endpoint: mean survival time, higher = longer survival. An outline of the steps: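 Each compound was tested against a transplantable tumor grown in mice. The endpoint was survival, with treated animals benchmarked against vehicle controls as a simple ratio.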

Setting [1] is: dose: 100.0 mg/kg/injection, schedule: Q04DX003 (ip), vehicle: saline with Tween-80.
The mark [2] stands for this setting: dose: 200.0 mg/kg/injection, schedule: Q04DX003 (ip), vehicle: saline with Tween-80.
The mark [3] stands for this setting: dose: 400.0 mg/kg/injection, schedule: Q04DX003 (ip), vehicle: saline with Tween-80.
Where [4] appears, read: dose: 50.0 mg/kg/injection, schedule: Q01DX009 (ip), vehicle: Klucel (hydroxypropylcellulose) (HPC).
[5] abbreviates: dose: 100.0 mg/kg/injection, schedule: Q01DX001 (ip), vehicle: saline.
Where [6] appears, read: dose: 200.0 mg/kg/injection, schedule: Q01DX001 (ip), vehicle: saline.
[7] abbreviates: dose: 100.0 mg/kg/injection, schedule: Q01DX009 (ip), vehicle: saline with Tween-80.

Where “and” joins values, the source holds several entries; their conditions need not be identical. Equal values may be shown once. Inconclusive results and toxic doses are left out.

With `N/N=C\C(=N/N)C(O)C(O)C(O)C(O)CO` (stereo unspecified), the T/C is 86 % of control under setting [1], 88 % of control under setting [2] and 93 % of control under setting [3].

As to `CCCCC(=O)OCC1OC(n2cnc3c(=S)nc[nH]c32)C(OC(=O)CCCC)C1OC(=O)CCCC` (stereo unspecified), the T/C reads like this: (dose: 50.0 mg/kg/injection, schedule: Q01DX015 (ip), vehicle: carboxymethylcellulose (CMC)) 151 % of control; (dose: 50.0 mg/kg/injection, schedule: Q01DX Z (ip), vehicle: carboxymethylcellulose (CMC)) 117 % of control; (dose: 100.0 mg/kg/injection, schedule: Q01DX015 (ip), vehicle: carboxymethylcellulose (CMC)) 172 % of control; (dose: 200.0 mg/kg/injection, schedule: Q01DX Z (ip), vehicle: carboxymethylcellulose (CMC)) 161 % of control; (dose: 400.0 mg/kg/injection, schedule: Q01DX Z (ip), vehicle: carboxymethylcellulose (CMC)) 87 % of control.

As to `CC(C)(N)CNc1ccccc1`, the T/C (dose: 25.0 mg/kg/injection, schedule: Q01DX009 (ip), vehicle: saline) is 98 % of control; the T/C (dose: 25.0 mg/kg/injection, schedule: Q04DX003 (ip), vehicle: saline) was 97 % of control; the T/C (dose: 50.0 mg/kg/injection, schedule: Q01DX009 (ip), vehicle: saline) was 98 % of control; the T/C (dose: 50.0 mg/kg/injection, schedule: Q04DX003 (ip), vehicle: saline) is 92 % of control; the T/C (dose: 100.0 mg/kg/injection, schedule: Q01DX009 (ip), vehicle: saline) was 100 % of control; the T/C under setting [1] was 98 % of control. For the same molecule, where the note is “dose: 100.0 mg/kg/injection, schedule: Q04DX003 (ip), vehicle: saline”, the T/C was 105 % of control.

As for `O=P(NNc1ccccc1)(NNc1ccccc1)c1ccccc1`, the T/C reads like this: (dose: 100.0 mg/kg/injection, schedule: Q01DX009 (ip), vehicle: carboxymethylcellulose (CMC)) 90 % of control; (dose: 200.0 mg/kg/injection, schedule: Q01DX009 (ip), vehicle: carboxymethylcellulose (CMC)) 88 % of control; (dose: 400.0 mg/kg/injection, schedule: Q01DX009 (ip), vehicle: carboxymethylcellulose (CMC)) 92 % of control.

As for `O=c1oc(-c2ccccc2)nc2c(Cl)ccc(Cl)c12`, the T/C is 110 % of control (dose: 25.0 mg/kg/injection, schedule: Q01DX009 (ip), vehicle: Klucel (hydroxypropylcellulose) (HPC)); 105 % of control under setting [4]; 102 % of control (dose: 75.0 mg/kg/injection, schedule: Q01DX009 (ip), vehicle: Klucel (hydroxypropylcellulose) (HPC)).

As to `NC(=S)N/N=C/c1ccc(Cl)cn1`, the T/C reads like this: (dose: 7.33 mg/kg/injection, schedule: Q04DX003 (ip), vehicle: saline with Tween-80) 97 % of control; (dose: 11.0 mg/kg/injection, schedule: Q01DX001 (ip), vehicle: saline with Tween-80) 95 % of control; (dose: 11.0 mg/kg/injection, schedule: Q04DX003 (ip), vehicle: saline with Tween-80) 104 % of control; (dose: 16.5 mg/kg/injection, schedule: Q01DX001 (ip), vehicle: saline with Tween-80) 105 % of control; (dose: 16.5 mg/kg/injection, schedule: Q04DX003 (ip), vehicle: saline with Tween-80) 116 % of control; (dose: 25.0 mg/kg/injection, schedule: Q01DX001 (ip), vehicle: saline with Tween-80) 111 % of control. Besides, where the note is “dose: 25.0 mg/kg/injection, schedule: Q04DX003 (ip), vehicle: saline with Tween-80”, the T/C was 121 % of control.

In the case of `CC(=O)OC1=C(CC(C)C)C(=O)c2ccccc2C1=O`, the T/C under setting [5] is 104 % of control; the T/C under setting [6] was 107 % of control; the T/C (dose: 400.0 mg/kg/injection, schedule: Q01DX001 (ip), vehicle: saline) was 103 % of control.

For the molecule `CCN1C(c2ccccc2)C1c1ccccc1` (stereo unspecified), the T/C by setting is: (dose: 100.0 mg/kg/injection, schedule: Q04DX003 (ip), vehicle: Klucel (hydroxypropylcellulose) (HPC)) 101 % of control; (dose: 200.0 mg/kg/injection, schedule: Q04DX003 (ip), vehicle: Klucel (hydroxypropylcellulose) (HPC)) 102 % of control; (dose: 400.0 mg/kg/injection, schedule: Q04DX003 (ip), vehicle: Klucel (hydroxypropylcellulose) (HPC)) 101 % of control.

As to `O=C1CCc2c1cc(O)c1ccc(S(=O)(=O)O)cc21`, the T/C (dose: 5.0 mg/kg/injection, schedule: Q01DX001 (ip), vehicle: saline) is 104 % of control; the T/C (dose: 10.0 mg/kg/injection, schedule: Q01DX001 (ip), vehicle: saline) was 106 % of control; the T/C (dose: 20.0 mg/kg/injection, schedule: Q01DX001 (ip), vehicle: saline) is 104 % of control; the T/C (dose: 40.0 mg/kg/injection, schedule: Q01DX001 (ip), vehicle: saline) was 102 % of control.

Regarding `Nc1nc(Cl)[nH]c1-c1ncn[nH]1`, the T/C under setting [5] is 92 % of control and the T/C under setting [6] was 106 % of control.

Consider `CCCCCCCC/C=C\CCCCCCCC(=O)OCCSCCOC(C)=O`, for which the T/C is 97 % of control under setting [7]; 89 % of control under setting [1]; 102 % of control (dose: 200.0 mg/kg/injection, schedule: Q01DX009 (ip), vehicle: saline with Tween-80); 92 % of control under setting [2]; 102 % of control (dose: 400.0 mg/kg/injection, schedule: Q01DX009 (ip), vehicle: saline with Tween-80); 94 % of control under setting [3].

On to `CC1(C)OC(CF)C2OC(C)(C)OC(CF)C2O1` (stereo unspecified), for which the T/C (dose: 56.25 mg/kg/injection, schedule: Q01DX009 (ip), vehicle: carboxymethylcellulose (CMC)) was 95 % of control; the T/C (dose: 100.0 mg/kg/injection, schedule: Q01DX001 (ip), vehicle: carboxymethylcellulose (CMC)) is 96 % of control; the T/C (dose: 112.5 mg/kg/injection, schedule: Q01DX009 (ip), vehicle: carboxymethylcellulose (CMC)) was 102 % of control; the T/C (dose: 200.0 mg/kg/injection, schedule: Q01DX001 (ip), vehicle: carboxymethylcellulose (CMC)) was 96 % of control; the T/C (dose: 400.0 mg/kg/injection, schedule: Q01DX001 (ip), vehicle: carboxymethylcellulose (CMC)) was 104 % of control.

Regarding `O=P(NC12CC3CC(CC(C3)C1)C2)(NC12CC3CC(CC(C3)C1)C2)N(CCCl)CCCl`, the T/C is, setting by setting: under setting [4], 112 % of control; (dose: 100.0 mg/kg/injection, schedule: Q01DX001 (ip), vehicle: Klucel (hydroxypropylcellulose) (HPC)) 105 % of control; (dose: 100.0 mg/kg/injection, schedule: Q01DX009 (ip), vehicle: Klucel (hydroxypropylcellulose) (HPC)) 104 % of control; (dose: 200.0 mg/kg/injection, schedule: Q01DX001 (ip), vehicle: Klucel (hydroxypropylcellulose) (HPC)) 94 % of control; (dose: 200.0 mg/kg/injection, schedule: Q01DX009 (ip), vehicle: Klucel (hydroxypropylcellulose) (HPC)) 89 % of control; (dose: 400.0 mg/kg/injection, schedule: Q01DX001 (ip), vehicle: Klucel (hydroxypropylcellulose) (HPC)) 98 % of control.

For the molecule `COc1c(C)c(C)c(OC(C)=O)c(C)c1COC(C)=O`, the T/C reads like this: (dose: 25.0 mg/kg/injection, schedule: Q01DX009 (ip), vehicle: saline with Tween-80) 90 % of control; (dose: 50.0 mg/kg/injection, schedule: Q01DX009 (ip), vehicle: saline with Tween-80) 95 % of control; (dose: 100.0 mg/kg/injection, schedule: Q01DX001 (ip), vehicle: saline with Tween-80) 98 % of control; under setting [7], 95 % of control and 98 % of control; (dose: 200.0 mg/kg/injection, schedule: Q01DX001 (ip), vehicle: saline with Tween-80) 93 % of control; (dose: 400.0 mg/kg/injection, schedule: Q01DX001 (ip), vehicle: saline with Tween-80) 109 % of control.

Take `c1ccc2c(c1)C1c3cccc[n+]3C2C2C1CC1C3c4ccccc4C(C12)[n+]1ccccc13` (stereo unspecified): the T/C reads like this: (dose: 1.56 mg/kg/injection, schedule: Q04DX003 (ip), vehicle: saline) 100 % of control; (dose: 3.12 mg/kg/injection, schedule: Q01DX009 (ip), vehicle: saline) 111 % of control; (dose: 3.12 mg/kg/injection, schedule: Q04DX003 (ip), vehicle: saline) 96 % of control; (dose: 6.25 mg/kg/injection, schedule: Q01DX009 (ip), vehicle: saline) 100 % of control and 88 % of control; (dose: 6.25 mg/kg/injection, schedule: Q04DX003 (ip), vehicle: saline) 95 % of control; (dose: 12.5 mg/kg/injection, schedule: Q01DX009 (ip), vehicle: saline) 100 % of control and 102 % of control.

As to `Cc1c2oc3c(C)ccc(C(=O)OCCN4CCOCC4)c3nc-2c(C(=O)OCCN2CCOCC2)c(N)c1=O`, the T/C runs as follows: (dose: 100.0 mg/kg/injection, schedule: Q04DX002 (ip), vehicle: saline) 98 % of control; (dose: 200.0 mg/kg/injection, schedule: Q04DX002 (ip), vehicle: saline) 103 % of control.
